Experimental data reported in US8853244B2, “Thiophene-carboxamides useful as inhibitors of protein kinases” (Vertex Pharmaceuticals Incorporated, priority 2006, dated 2014).

Target: T1, Plk1 (Homo sapiens, UniProt P53350)
T1 construct: in the presence of 15 nM Plk1 (A20-K338)
Experiment: Plk1 inhibition assay (radioactive-phosphate incorporation)
Assay type: biochemical
Settings: Ki(app)
Experimental: The compounds of the present invention are evaluated as inhibitors of human PLK kinase using the following assays.
Compounds were screened for their ability to inhibit Plk1 using a radioactive-phosphate incorporation assay. Assays were carried out in a mixture of 25 mM HEPES (pH 7.5), 10 mM MgCl2, and 1 mM DTT. Final substrate concentrations were 50 μM [γ-33P]ATP (136 mCi 33P ATP/mmol ATP, Amersham Pharmacia Biotech/Sigma Chemicals) and 10 μM peptide (SAM68 protein Δ332-443). Assays were carried out at 25° C. in the presence of 15 nM Plk1 (A20-K338). An assay stock buffer solution was prepared containing all of the reagents listed above, with the exception of ATP and the test compound of interest. 30 μL of the stock solution was placed in a 96 well plate followed by addition of 2 μL of DMSO stock containing serial dilutions of the test compound (typically starting from a final concentration of 10 μM with 2-fold serial dilutions) in duplicate (final DMSO concentration 5%). The plate was pre-incubated for 10 minutes at 25° C. and the reaction initiated by addition of 8 μL [γ-33P]ATP (final concentration 50 μM). […]
After removing mean background values for all of the data points, Ki(app) data were calculated from non-linear regression analysis of the initial rate data using the Prism software package (GraphPad Prism version 3.0cx for Macintosh, GraphPad Software, San Diego Calif., USA). […]

T1 sequence (P53350 20-338): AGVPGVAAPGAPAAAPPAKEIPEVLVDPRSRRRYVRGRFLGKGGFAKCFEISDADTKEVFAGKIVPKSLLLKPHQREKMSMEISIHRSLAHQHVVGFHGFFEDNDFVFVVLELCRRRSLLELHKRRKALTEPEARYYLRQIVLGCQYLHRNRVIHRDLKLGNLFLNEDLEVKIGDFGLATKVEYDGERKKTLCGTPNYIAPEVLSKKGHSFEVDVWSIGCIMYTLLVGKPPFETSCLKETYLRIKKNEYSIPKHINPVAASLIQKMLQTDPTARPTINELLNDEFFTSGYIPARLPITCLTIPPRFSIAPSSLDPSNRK

Compound: CC(Oc1cc(-c2cc(-c3cccc(Cl)c3)cnc2N)sc1C(N)=O)c1ccccc1Cl (stereo not shown) [I-3, 5-[2-Amino-5-(3-chloro-phenyl)-pyridin-3-yl]-3-[1-(2-chloro-phenyl)-ethoxy]-thiophene-2-carboxylic acid amide]
- Ki: < 10 nM
